Experimental findings from patent US9266842B2, “Anti-malarial agents” (UNIVERSITY OF CAPE TOWN, priority 2012, dated 2016) are described below.

In assay [1] the test system is P. falciparum K1. In words: Anti-malarial in vitro efficacy, assay 1, P. falciparum K1. In kind it is cell-based. As to conditions: Plasmodium falciparum, strain K1. How it is done:
(§1) The ability of aminopyrazine derivatives according to the invention to kill P. falciparum parasites and/or to inhibit its proliferation is tested as follows:
(§2) The protocol used was as described in the supplemental material to Fiddock et al., 2004, Nature Reviews Drug Discovery, (3), p 509.
(§3) EC50s (ng/ml) are reported in Table 3 below against different strains of P. falciparum K1, NF54 (assay 1).

Assay [2] relates to parasitemia. In words: Anti-malarial in vivo efficacy, inhibition of parasitemia after 4 daily oral doses. As to conditions: for inhibition in vivo at 3 mg/kg: read-out: percentages of inhibition of parasitemia, 3 mg/kg po; for inhibition in vivo at 10 mg/kg: read-out: percentages of inhibition of parasitemia, 10 mg/kg po. From the text:
The ability of aminopyrazine derivatives according to the invention to show antimalarial efficacy in vivo can be tested by using the protocols described in the supplemental material to Fidock et al., 2004, Nature Reviews Drug Discovery, (3), p 509.

For assay [3], the system named is P. falciparum NF54. The assay can be described thus: Anti-malarial in vitro efficacy, assay 1, P. falciparum NF54. As to conditions: Plasmodium falciparum, strain NF54. In kind it is cell-based. Here is the method:
as §1, §2, §3

SMILES strings stand for the structures. Values after ≈ are worked out from the molar mass of the structure shown.

In assay [1], `COc1ccc(-c2nc(-c3ccc(S(C)(=O)=O)cc3)cnc2N)cn1` [Compound 1, 3-(6-methoxypyridin-3-yl)-5-(4-(methylsulfonyl)phenyl)pyrazin-2-amine] gave an EC50 of 17 ng/mL (≈ 47.7 nM).

For `Nc1ncc(-c2ccc(C(=O)N3CCC(O)CC3)cc2)nc1-c1ccc(C(F)(F)F)cc1` [Compound 23, (4-(5-amino-6-(4-(trifluoromethyl)phenyl)pyrazin-2-yl)phenyl)(4-hydroxypiperidin-1-yl)methanone], the values for the EC50 in assay [1] and in assay [3] were 2.2 ng/mL (≈ 4.97 nM) and 2.4 ng/mL (≈ 5.42 nM), respectively. Moreover, the inhibition in vivo at 3 mg/kg in assay [2] was 98.7%.

For the compound `CN1CCCN(C(=O)c2ccc(-c3cnc(N)c(-c4ccc(C(F)(F)F)nc4)n3)cc2)CC1` [Compound 12, (4-(5-amino-6-(6-(trifluoromethyl)pyridin-3-yl)pyrazin-2-yl)phenyl)(4-methyl-1,4-diazepan-1-yl)methanone], the EC50 in assay [1] was 4.5 ng/mL (≈ 9.86 nM); in assay [3], 6.9 ng/mL (≈ 15.1 nM). For the same compound, the inhibition in vivo at 3 mg/kg in assay [2] was determined as 99.9%.

As to `Nc1ncc(-c2ccc(C(=O)N3CCCNCC3)cc2)nc1-c1ccc(C(F)(F)F)cc1` [Compound 27, (4-(5-amino-6-(4-(trifluoromethyl)phenyl)pyrazin-2-yl)phenyl)(1,4-diazepan-1-yl)methanone], the EC50 amounted to 2.2 ng/mL (≈ 4.98 nM) in assay [1] and 3.2 ng/mL (≈ 7.25 nM) in assay [3]. The inhibition in vivo at 3 mg/kg in assay [2] stood at 88%.

As to `Nc1ncc(-c2ccc(C(=O)N3CCOCC3)cc2)nc1-c1ccc(C(F)(F)F)cc1` [Compound 11, (4-(5-amino-6-(4-(trifluoromethyl)phenyl)pyrazin-2-yl)phenyl)(morpholino)methanone], in assay [1], the EC50 turned out to be 3.1 ng/mL (≈ 7.24 nM).

Consider `CN1CCN(C(=O)c2ccc(-c3cnc(N)c(-c4ccc(C(F)(F)F)cc4)n3)cc2)CC1` [Compound 6, (4-(5-amino-6-(4-(trifluoromethyl)phenyl)pyrazin-2-yl)phenyl)(4-methylpiperazin-1-yl) methanone], for which the EC50 was 3 ng/mL (≈ 6.8 nM) in assay [1] and 3.5 ng/mL (≈ 7.93 nM) in assay [3]. For the same compound, the inhibition in vivo at 3 mg/kg in assay [2] came out at 99.9%. The inhibition in vivo at 10 mg/kg in assay [2] was 99.9%.

As to `NC(=O)c1ccc(-c2cnc(N)c(-c3ccc(C(F)(F)F)nc3)n2)cc1` [Compound 5, 4-(5-amino-6-(6-(trifluoromethyl)pyridin-3-yl)pyrazin-2-yl)benzamide], the EC50 in assay [1] is 5.8 ng/mL (≈ 16.1 nM); in assay [3] it was 7.8 ng/mL (≈ 21.7 nM). Moreover, the inhibition in vivo at 3 mg/kg in assay [2] amounted to 99.4%. The inhibition in vivo at 10 mg/kg in assay [2] amounted to 99.9%.

As to `CS(=O)(=O)c1ccc(-c2cnc(N)c(-c3ccc(C(F)(F)F)nc3)n2)cc1` [Compound 3, 5-(4-(methylsulfonyl)phenyl)-3-(6-(trifluoromethyl)pyridin-3-yl)pyrazin-2-amine], it took 4.8 ng/mL (≈ 12.2 nM) to reach a half-maximal effect in assay [1] (EC50).

In the case of `CS(=O)(=O)c1ccc(-c2cnc(N)c(-c3ccc(C(F)(F)F)cc3)n2)cc1` [Compound 2, 5-(4-(methylsulfonyl)phenyl)-3-(4-(trifluoromethyl)phenyl)pyrazin-2-amine], a half-maximal response in assay [1] (EC50) required 4 ng/mL (≈ 10.2 nM).

As to `CC(C)(C)N1CCN(C(=O)c2ccc(-c3cnc(N)c(-c4ccc(C(F)(F)F)cc4)n3)cc2)CC1` [Compound 20, (4-(5-amino-6-(4-(trifluoromethyl)phenyl)pyrazin-2-yl)phenyl)(4-tert-butylpiperazin-1-yl)methanone], the results for the EC50 in assay [1] and in assay [3] were 5.5 ng/mL (≈ 11.4 nM) and 8.2 ng/mL (≈ 17 nM), respectively.

Take `CN1CCCN(C(=O)c2ccc(-c3cnc(N)c(-c4ccc(C(F)(F)F)cc4)n3)cc2)CC1` [Compound 25, (4-(5-amino-6-(4-(trifluoromethyl)phenyl)pyrazin-2-yl)phenyl)(4-methyl-1,4-diazepan-1-yl)methanone]: the results for the EC50 in assay [1] and in assay [3] were 2.6 ng/mL (≈ 5.71 nM) and 3.1 ng/mL (≈ 6.81 nM), respectively. The inhibition in vivo at 3 mg/kg in assay [2] was 90%.

On to `Nc1ncc(-c2ccc(C(=O)N3CCC(O)C3)cc2)nc1-c1ccc(C(F)(F)F)nc1` (stereo not shown) [Compound 30, (4-(5-amino-6-(6-(trifluoromethyl)pyridin-3-yl)pyrazin-2-yl)phenyl)(3-hydroxypyrrolidin-1-yl)methanone], for which the half-maximal effective concentration (EC50) in assay [1] amounted to 5.2 ng/mL (≈ 12.1 nM); in assay [3], 8.6 ng/mL (≈ 20 nM).

For the compound `Nc1ncc(-c2ccc(C(=O)N3CCC(N)CC3)cc2)nc1-c1ccc(C(F)(F)F)nc1` [Compound 31, (4-(5-amino-6-(6-(trifluoromethyl)pyridin-3-yl)pyrazin-2-yl)phenyl)(4-aminopiperidinyl)methanone], the concentration giving a half-maximal response (EC50) in assay [1] was 7.6 ng/mL (≈ 17.2 nM); in assay [3] it was 8.5 ng/mL (≈ 19.2 nM).

As to `Nc1ncc(-c2ccc(C(=O)N3CCC(O)CC3)cc2)nc1-c1ccc(C(F)(F)F)nc1` [Compound 22, (4-(5-amino-6-(6-(trifluoromethyl)pyridin-3-yl)pyrazin-2-yl)phenyl)(4-hydroxypiperidin-1-yl)methanone], the figures for the EC50 in assay [1] and in assay [3] were 4 ng/mL (≈ 9.02 nM) and 4.5 ng/mL (≈ 10.1 nM), respectively.

Regarding `Nc1ncc(-c2ccc(C(=O)N3CC[C@@H](O)C3)cc2)nc1-c1ccc(C(F)(F)F)cc1` [Compound 35, (R)-(4-(5-amino-6-(4-(trifluoro-methyl)phenyl)pyrazin-2-yl)phenyl)(3-hydroxypyrrolidin-1-yl) methanone], in assay [2], the inhibition in vivo at 3 mg/kg was found to be 99.9% and the inhibition in vivo at 10 mg/kg was 99.9%. Moreover, the response in assay [3] was half-maximal at 3.2 ng/mL (≈ 7.47 nM) (EC50).

Take `Nc1ncc(-c2ccc(C(=O)N3CCC(N)CC3)cc2)nc1-c1ccc(C(F)(F)F)cc1` [Compound 32, (4-(5-amino-6-(4-(trifluoromethyl)phenyl)pyrazin-2-yl)phenyl)(4-aminopiperidinyl)methanone]: the EC50 in assay [1] amounted to 2.9 ng/mL (≈ 6.57 nM); in assay [3] it was 4.3 ng/mL (≈ 9.74 nM).

Regarding `Nc1ncc(-c2ccc(C(=O)N3CCNCC3)cc2)nc1-c1ccc(C(F)(F)F)cc1` [Compound 8, (4-(5-amino-6-(4-(trifluoromethyl)phenyl)pyrazin-2-yl)phenyl)(piperazin-1-yl)methanone], in assay [1], the EC50 worked out at 2.1 ng/mL (≈ 4.91 nM). Further, in assay [2], the inhibition in vivo at 3 mg/kg turned out to be 99.9% and the inhibition in vivo at 10 mg/kg was 99.9%. The compound further registered an EC50 in assay [3] of 2.3 ng/mL (≈ 5.38 nM).

In the case of `Nc1ncc(-c2ccc(C(=O)N3CCNCC3)cc2)nc1-c1ccc(C(F)(F)F)nc1` [Compound 9, (4-(5-amino-6-(6-(trifluoromethyl)pyridin-3-yl)pyrazin-2-yl)phenyl)(piperazin-1-yl) methanone], the EC50 in assay [1] was determined as 4 ng/mL (≈ 9.34 nM); in assay [3] it was 4.6 ng/mL (≈ 10.7 nM).

`Nc1ncc(-c2ccc(C(=O)N3CCOCC3)cc2)nc1-c1ccc(C(F)(F)F)nc1` [Compound 10, (4-(5-amino-6-(6-(trifluoromethyl)pyridin-3-yl)pyrazin-2-yl)phenyl) (morpholino) methanone] came in with an EC50 in assay [1] of 4.1 ng/mL (≈ 9.55 nM).

Regarding `Nc1ncc(-c2ccc(C(=O)N3CCC(N)C3)cc2)nc1-c1ccc(C(F)(F)F)nc1` (stereo not shown) [Compound 28, (4-(5-amino-6-(6-(trifluoromethyl)pyridin-3-yl)pyrazin-2-yl)phenyl)(3-aminopyrrolidin-1-yl)methanone], the EC50 in assay [1] came out at 10 ng/mL (≈ 23.3 nM); in assay [3], 17 ng/mL (≈ 39.7 nM).

`Nc1ncc(-c2ccc(S(=O)(=O)C3CC3)cc2)nc1-c1ccc(C(F)(F)F)nc1` [Compound 34, 5-(4-(cyclopropylsulfonyl)phenyl)-3-(6-(trifluoromethyl)pyridin-3-yl) pyrazin-2-amine] returned an EC50 in assay [1] of 4 ng/mL (≈ 9.51 nM).

Regarding `CC(C)(C)N1CCN(C(=O)c2ccc(-c3cnc(N)c(-c4ccc(C(F)(F)F)nc4)n3)cc2)CC1` [Compound 24, (4-(5-amino-6-(6-(trifluoromethyl)pyridin-3-yl)pyrazin-2-yl)phenyl)(4-(tert-butyl)piperazin-1-yl)methanone], the half-maximal effective concentration (EC50) in assay [1] turned out to be 3.1 ng/mL (≈ 6.4 nM); in assay [3] it was 4.3 ng/mL (≈ 8.87 nM). For the same compound, the inhibition in vivo at 3 mg/kg in assay [2] was found to be 87.6%.

With `NC(=O)c1ccc(-c2cnc(N)c(-c3ccc(C(F)(F)F)cc3)n2)cc1` [Compound 4, 4-(5-amino-6-(4-(trifluoromethyl)phenyl)pyrazin-2-yl)benzamide], the figures for the EC50 in assay [1] and in assay [3] were 4.9 ng/mL (≈ 13.7 nM) and 5.7 ng/mL (≈ 15.9 nM), respectively. Further, the inhibition in vivo at 3 mg/kg in assay [2] came out at 99.9%. For the same compound, the inhibition in vivo at 10 mg/kg in assay [2] is 99.9%.

For `CN1CCN(C(=O)c2ccc(-c3cnc(N)c(-c4ccc(C(F)(F)F)nc4)n3)cc2)CC1` [Compound 7, (4-(5-amino-6-(6-(trifluoromethyl)pyridin-3-yl)pyrazin-2-yl)phenyl)(4-methylpiperazin-1-yl)methanone], the EC50 in assay [1] and in assay [3] was 4.4 ng/mL (≈ 9.94 nM) each time. The inhibition in vivo at 3 mg/kg in assay [2] was determined as 81%. The inhibition in vivo at 10 mg/kg in assay [2] amounted to 99.8%.

In the case of `Nc1ncc(-c2ccc(C(=O)N3CC[C@H](O)C3)cc2)nc1-c1ccc(C(F)(F)F)cc1` [Compound 36, (S)-(4-(5-amino-6-(4-(trifluoro-methyl)phenyl)pyrazin-2-yl)phenyl)(3-hydroxypyrrolidin-1-yl)methanone], in assay [2], the inhibition in vivo at 3 mg/kg was 99.9% and the inhibition in vivo at 10 mg/kg was found to be 99.9%. In assay [3], a half-maximal response (EC50) required 2.6 ng/mL (≈ 6.07 nM).

Take `Nc1ncc(-c2ccc(C(=O)N3CCC(N)C3)cc2)nc1-c1ccc(C(F)(F)F)cc1` (stereo not shown) [Compound 29, (4-(5-amino-6-(4-(trifluoromethyl)phenyl)pyrazin-2-yl)phenyl)(3-aminopyrrolidin-1-yl)methanone]: the results for the EC50 in assay [1] and in assay [3] were 4.8 ng/mL (≈ 11.2 nM) and 8.8 ng/mL (≈ 20.6 nM), respectively.

On to `NC(=O)c1ccc(-c2cnc(N)c(-c3ccc(C(N)=O)cc3)n2)cc1` [Compound 15, 4,4′-(3-aminopyrazine-2,6-diyl) dibenzamide], for which the EC50 was 7.1 ng/mL (≈ 21.3 nM) in assay [1] and 8.5 ng/mL (≈ 25.5 nM) in assay [3].

On to `Nc1ncc(-c2ccc(C(=O)N3CCCNCC3)cc2)nc1-c1ccc(C(F)(F)F)nc1` [Compound 26, (4-(5-amino-6-(6-(trifluoromethyl)pyridin-3-yl)pyrazin-2-yl)phenyl) (1,4-diazepan-1-yl)methanone], for which the EC50 came out at 4.3 ng/mL (≈ 9.72 nM) in assay [1] and 5.9 ng/mL (≈ 13.3 nM) in assay [3].

What is called EC50 is the midpoint of the concentration-response curve. A lower EC50 goes with an effect from little substance.
